These results are taken from publication PMC2966039 (Journal of Medicinal Chemistry, 2009).

The target of test [1] is LmPTR1. The following applies: cited from earlier work.
Test [2] deals with T1, TbPTR1 (Trypanosoma brucei brucei, UniProt O76290).
T1 sequence (O76290 1-268): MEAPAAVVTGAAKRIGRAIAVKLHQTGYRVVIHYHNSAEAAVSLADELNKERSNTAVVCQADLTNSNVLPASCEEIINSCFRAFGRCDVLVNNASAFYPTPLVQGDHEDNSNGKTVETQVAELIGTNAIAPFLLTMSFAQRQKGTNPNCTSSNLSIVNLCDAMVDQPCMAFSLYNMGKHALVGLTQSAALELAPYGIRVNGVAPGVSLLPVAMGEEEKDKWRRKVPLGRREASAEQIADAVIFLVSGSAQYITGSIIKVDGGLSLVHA
Description: TbPTR1 activity assay. In kind it is biochemical. The following applies: for Hill slope: averaged over at least two independent measurements; for ligand efficiency: from Ki^app.

Turning to `Cc1cnc2nc(N)nc(N)c2n1` [6-methylpteridine-2,4-diamine], the inhibition constants entry in test [1] is “low micromolar range”.
With `COC(=O)c1ccc2nc(N)sc2c1` [Compound 2], in test [2], the Hill slope (commonly the slope factor of the fitted curve) is on record as 0.6 and the ligand efficiency is 0.46 kcal mol^−1/heavy atom.
In test [2], `Nc1nc2ccc(C(=O)N3CCCCC3)cc2s1` [Compound 3] came in with a Hill slope of 0.6 and a ligand efficiency of 0.29 kcal mol^−1/heavy atom.
`Nc1nc2ccc(Cl)cc2[nH]1` [Compound 4, 2-Amino-6-chloro-benzimidazole]: in test [2], the Hill slope came out at 0.9 and the ligand efficiency is recorded as 0.62 kcal mol^−1/heavy atom.
In turn, `Nc1nc2ccccc2[nH]1` [Compound 5, 2-amino-benzimidazole] gave a Hill slope in test [2] of 0.9. Moreover, the drop in affinity entry in test [2] (compared to 4) was “more than 20 fold”.
Regarding `Cc1cccc(-c2ccc3nc(N)[nH]c3c2)c1` [Compound 6], the Hill slope in test [2] stood at 1.1.
In turn, `Nc1nc2ccccc2n1Cc1ccc(Cl)c(Cl)c1` [Compound 9, 1-(3,4-dichloro-benzyl)-2-amino-benzimidazole] showed a Hill slope in test [2] of 0.7. Besides, in test [2] (compared to the virtual screening hit (4)), the increase in affinity entry is “more than 20 fold”.
Consider `Nc1nc2cccc(Cl)c2n1Cc1ccc(Cl)c(Cl)c1` [Compound 10, 7-Chloro-1-(3,4-dichlorobenzyl)-1H-benzo[d]imidazol-2-amine], for which the Hill slope in test [2] worked out at 1.0.
The compound `CCCOc1cccc2nc(N)n(Cc3ccc(Cl)c(Cl)c3)c12` [Compound 11, 7-(n-Propyloxy)-1-(3,4-dichlorobenzyl)-1H-benzo[d]imidazol-2-amine] displayed an increase in potency in test [2] (compared to the 7-chloro derivative 10) of 10 fold.
Consider `Nc1nc2cccc(-c3ccccc3)c2n1Cc1ccc(Cl)c(Cl)c1` [Compound 12, 7-Phenyl-1-(3,4-dichlorobenzyl)-1H-benzo[d]imidazol-2-amine], for which, in test [2], the Hill slope is recorded as 0.7.
